Key:
[1] = target: T1, human Adenosine A1 receptor (Homo sapiens, UniProt P30542); assay: Adenosine receptor TR-FRET binding assay (CA200645 displacement), A1
T1 sequence (P30542 1-326): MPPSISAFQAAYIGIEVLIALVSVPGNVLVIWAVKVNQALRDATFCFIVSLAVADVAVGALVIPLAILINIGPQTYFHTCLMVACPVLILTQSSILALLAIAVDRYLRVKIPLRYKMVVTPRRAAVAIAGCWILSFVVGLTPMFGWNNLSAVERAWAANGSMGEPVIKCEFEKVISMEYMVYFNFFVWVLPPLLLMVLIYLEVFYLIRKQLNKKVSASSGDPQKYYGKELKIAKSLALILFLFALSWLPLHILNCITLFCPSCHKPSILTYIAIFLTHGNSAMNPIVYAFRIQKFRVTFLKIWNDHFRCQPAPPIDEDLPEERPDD

[2] = target: T2, human Adenosine A2b receptor (Homo sapiens, UniProt P29275); assay: Adenosine receptor TR-FRET binding assay (CA200645 displacement), A2b; settings: 30 nM CA200645, CHO cell membranes, 2 hours at room temperature
T2 construct: expressed in transfected cells; host or cells: CHO cell membranes
T2 sequence (P29275 1-332): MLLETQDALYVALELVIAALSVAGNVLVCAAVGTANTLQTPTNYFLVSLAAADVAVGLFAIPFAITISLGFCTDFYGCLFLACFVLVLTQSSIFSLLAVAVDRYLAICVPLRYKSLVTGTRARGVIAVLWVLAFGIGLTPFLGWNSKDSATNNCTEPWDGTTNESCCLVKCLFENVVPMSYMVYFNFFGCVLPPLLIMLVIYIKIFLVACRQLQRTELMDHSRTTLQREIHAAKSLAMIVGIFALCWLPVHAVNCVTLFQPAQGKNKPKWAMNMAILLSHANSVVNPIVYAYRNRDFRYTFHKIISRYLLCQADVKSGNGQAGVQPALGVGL

[3] = target: T3, human Adenosine A2a receptor (Homo sapiens, UniProt P29274); assay: Adenosine receptor TR-FRET binding assay (CA200645 displacement), A2a; settings: 100 nM CA200645, CHO cell membranes, 2 hours at room temperature
T3 construct: expressed in transfected cells; host or cells: CHO cell membranes

human PBMCs = assay: CD3/CD28 stimulated IL-2 release NECA reversal assay in human PBMCs; format: cell-based; settings: PBMC, CD3/CD28 antibody stimulated, 1 uM NECA, 24 hours, IL-2 in culture supernatant;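 note: dose-response as % inhibition where 100% equals no-NECA control wells with CD3/CD28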
In short: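 PBMCs from citrated donor blood, 50,000 cells/well on plate-bound CD3 antibody (1 ug/ml), with 1 ug/ml CD28 antibody, 1 uM NECA and antagonist at 0.003-10 μM final. After 24 h at 37° C, supernatant IL-2 was measured by MSD immunoassay.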

[4] = target: T4, human Adenosine A3 receptor (Homo sapiens, UniProt P0DMS8); assay: Adenosine receptor TR-FRET binding assay (CA200645 displacement), A3
T4 sequence (P0DMS8 1-318): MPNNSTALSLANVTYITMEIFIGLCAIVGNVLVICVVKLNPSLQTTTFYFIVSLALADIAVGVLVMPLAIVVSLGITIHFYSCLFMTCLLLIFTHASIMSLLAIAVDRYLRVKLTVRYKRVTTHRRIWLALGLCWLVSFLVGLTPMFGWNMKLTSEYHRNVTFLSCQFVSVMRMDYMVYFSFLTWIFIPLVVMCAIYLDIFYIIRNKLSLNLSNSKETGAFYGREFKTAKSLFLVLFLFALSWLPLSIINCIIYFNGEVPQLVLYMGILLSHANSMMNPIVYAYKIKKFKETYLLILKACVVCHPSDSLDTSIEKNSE

[5] = test system: CD8+ T cells in human whole blood; assay: Measurement of pCREB in CD8+ T cells in human whole blood; format: cell-based; settings: T-cell, 1 h; heparinised human whole blood, rolipram, 3 μM NECA, 60 min, phospho-CREB in CD8+ T cells by FACS
In short: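 Heparinised human whole blood preincubated 20 min at 37 °C with serially diluted A2a antagonists plus rolipram, then stimulated 60 min with 3 μM NECA (final). After fixation and RBC lysis, permeabilized leukocytes stained for phospho-CREB and CD8; pCREB in CD8+ T cells read by flow cytometry.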

T3 sequence (P29274 whole entry): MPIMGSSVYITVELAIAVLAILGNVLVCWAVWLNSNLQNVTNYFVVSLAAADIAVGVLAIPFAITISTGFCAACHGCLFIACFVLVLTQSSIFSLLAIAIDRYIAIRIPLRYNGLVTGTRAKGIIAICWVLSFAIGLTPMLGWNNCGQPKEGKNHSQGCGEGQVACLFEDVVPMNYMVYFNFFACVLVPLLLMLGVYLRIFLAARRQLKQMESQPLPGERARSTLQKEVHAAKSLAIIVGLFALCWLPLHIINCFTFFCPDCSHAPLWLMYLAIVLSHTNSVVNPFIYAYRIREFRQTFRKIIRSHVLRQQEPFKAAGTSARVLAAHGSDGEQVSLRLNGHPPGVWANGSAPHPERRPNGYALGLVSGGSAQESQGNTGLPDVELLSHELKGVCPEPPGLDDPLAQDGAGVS

| SMILES | Ki [1] [nM] | Ki [2] [nM] | Ki [3] [nM] | IC50 (human PBMCs) [nM] | Ki [4] [nM] | IC50 [5] [nM] |
| --- | --- | --- | --- | --- | --- | --- |
| Cc1cc(-c2c(-c3cccc(C#N)c3)nn3ccc(C(=O)N[C@@H](C)C(C)(C)O)nc23)cc(C)n1 [Example 92, 2-(3-Cyanophenyl)-3-(2,6-dimethyl-4-pyridyl)-N-[(1S)-2-hydroxy-1,2-dimethyl-propyl]pyrazolo[1,5-a]pyrimidine-5-carboxamide] | 107 | 37 | 0.4 | 4 | 1470 | 20 |
| Cc1cc(-c2c(-c3cccc(C#N)c3)nn3ccc(C(=O)NCC(C)(O)CO)nc23)cc(C)n1 (stereo not drawn) [Example 92.1] | 222 | 4 | 0.5 | 14 | > 1000 | 110 |
| Cc1cc(-c2c(-c3cccc(C#N)c3)nn3ccc(C(=O)NC45CC(O)(C4)C5)nc23)cc(C)n1 [Example 92.2] | 324 | 25 | 1.6 | 17 | > 1000 | 350 |
| Cc1cc(-c2c(-c3cccc(C#N)c3)nn3ccc(C(=O)NCC4(O)COC4)nc23)cc(C)n1 [Example 92.3] | 212 | 7 | 2 | 11 | > 1000 | 260 |
| Cc1cc(-c2c(-c3cccc(C#N)c3)nn3ccc(C(=O)NCC4CCNC(=O)C4)nc23)cc(C)n1 (stereo not drawn) [Example 92.4] | 362 | 23 | 4.4 | 33 | > 1000 | 830 |
| Cc1cc(-c2c(-c3cccc(C#N)c3)nn3ccc(NC(=O)C(C)(C)O)nc23)cc(Cl)n1 [Example 94, N-[3-(2-Chloro-6-methyl-4-pyridyl)-2-(3-cyanophenyl)pyrazolo[1,5-a]pyrimidin-5-yl]-2-hydroxy-2-methyl-propanamide] | 124 | 3 | 1 | 27 | > 1000 | 1720 |
| CC(=O)Nc1ccn2nc(-c3cccc(C#N)c3)c(-c3cc(C)nc(Cl)c3)c2n1 [Example 94.1, N-[3-(2-Chloro-6-methyl-4-pyridyl)-2-(3-cyanophenyl)pyrazolo[1,5-a]pyrimidin-5-yl]acetamide] | 99 | 14 | 1.8 | 26 | > 1000 | 750 |
| Cc1cc(-c2c(-c3cccc(C#N)c3)nn3ccc(NC(=O)CC(C)(C)O)nc23)cc(Cl)n1 [Example 94.2, N-[3-(2-chloro-6-methyl-4-pyridyl)-2-(3-cyanophenyl)pyrazolo[1,5-a]pyrimidin-5-yl]-3-hydroxy-3-methyl-butanamide] | 81 | 7 | 1.2 | 20 | 2050 | 530 |
| Cc1cc(-c2c(-c3cccc(C#N)c3)nn3ccc(NC(=O)CC(C)(C)O)nc23)cc(C)n1 [Example 94.4, N-[2-(3-Cyanophenyl)-3-(2,6-dimethyl-4-pyridyl)pyrazolo[1,5-a]pyrimidin-5-yl]-3-hydroxy-3-methyl-butanamide] | 79 | 13 | 1.7 | 14 | > 1000 | 150 |
| Cc1cc(-c2c(-c3cccc(C#N)c3)nn3ccc(NC(=O)C(C)(C)O)nc23)cc(C)n1 [Example 94.5, N-[2-(3-cyanophenyl)-3-(2,6-dimethyl-4-pyridyl)pyrazolo[1,5-a]pyrimidin-5-yl]-2-hydroxy-2-methyl-propanamide] | 145 | 20 | 3.7 | 16 | > 1000 | 590 |
| Cc1cc(-c2c(-c3cccc(C#N)c3)nn3ccc(C(=O)NCCC(C)(C)N)nc23)cc(C)n1 [Example 96, N-(3-Amino-3-methyl-butyl)-2-(3-cyanophenyl)-3-(2,6-dimethyl-4-pyridyl)pyrazolo[1,5-a]pyrimidine-5-carboxamide] | 143 | 7 | 0.5 | 10 | > 1000 | 360 |
| Cc1cc(-c2c(-c3cccc(C#N)c3)nn3ccc(C(=N)N)nc23)cc(C)n1 [Example 97, 2-(3-Cyanophenyl)-3-(2,6-dimethyl-4-pyridyl)pyrazolo[1,5-a]pyrimidine-5-carboxamidine] | 260 | 21 | 1.5 | 38 | > 1000 | 580 |
| CC(=O)NC(C)(C)CNC(=O)c1ccn2nc(-c3cccc(C#N)c3)c(-c3cc(C)nc(Cl)c3)c2n1 [Example 98, N-(2-Acetamido-2-methyl-propyl)-3-(2-chloro-6-methyl-4-pyridyl)-2-(3-cyanophenyl)pyrazolo[1,5-a]pyrimidine-5-carboxamide] | 87 | 9 | 0.4 | 3 | 655 | 360 |
| Cc1cc(-c2c(-c3cccc(C#N)c3C)nn3ccc(C(=O)NCC(C)(C)O)nc23)cc(Cl)n1 [Example 102, 3-(2-Chloro-6-methyl-4-pyridyl)-2-(3-cyano-2-methyl-phenyl)-N-(2-hydroxy-2-methyl-propyl)pyrazolo[1,5-a]pyrimidine-5-carboxamide] | 233 | 32 | 0.5 | 16 | > 1000 | 140 |
| Cc1cc(-c2c(-c3cccc(C#N)c3C)nn3ccc(C(=O)NCC(C)(C)O)nc23)cc(C)n1 [Example 103, 2-(3-Cyano-2-methyl-phenyl)-3-(2,6-dimethyl-4-pyridyl)-N-(2-hydroxy-2-methyl-propyl)pyrazolo[1,5-a]pyrimidine-5-carboxamide] | 298 | 22 | 0.3 | 24 | > 1000 | 30 |
| Cc1cc(-c2c(-c3cccc(C#N)c3C)nn3ccc(C(=O)N[C@H](C)C(C)(C)O)nc23)cc(C)n1 [Example 104, 2-(3-Cyano-2-methyl-phenyl)-3-(2,6-dimethyl-4-pyridyl)-N-[(1R)-2-hydroxy-1,2-dimethyl-propyl]pyrazolo[1,5-a]pyrimidine-5-carboxamide] | 735 | 330 | 0.9 | 10 | > 1000 | 190 |
| Cc1cc(-c2c(-c3cccc(C#N)c3C)nn3ccc(C(=O)N[C@@H](C)C(C)(C)O)nc23)cc(C)n1 [Example 104.1, 2-(3-Cyano-2-methyl-phenyl)-3-(2,6-dimethyl-4-pyridyl)-N-[(1S)-2-hydroxy-1,2-dimethyl-propyl]pyrazolo[1,5-a]pyrimidine-5-carboxamide] | 398 | 111 | 1.2 | 4 | > 1000 | 30 |
| CC(=O)N1CCC(Nc2ccn3nc(-c4cccc(C#N)c4)c(-c4cc(C)nc(C)c4)c3n2)CC1 [Example 105.1, 3-[5-[(1-Acetyl-4-piperidyl)amino]-3-(2,6-dimethyl-4-pyridyl)pyrazolo[1,5-a]pyrimidin-2-yl]benzonitrile] | 692 | 50 | 8 | 33 | > 1000 | 890 |
